Tested on: NPY2R
Test: cAMP accumulation assay, NPY2R‐HEK293T cells
Type: cell-based, human
Settings: 0, 1, 10, 100 nM PYY, 0.5 mM IBMX, 10 μM FSK, 37 °C, 30 min, cAMP ELISA, n = 3
Experimental: HEK293T cells (Lenti‐X 293T Cell line; TaKaRa, Shiga, Japan) were maintained in Dulbecco's Modified Eagle Medium (DMEM; Fujifilm Wako Pure Chemical Industries, Osaka, Japan) supplemented with 10% fetal bovine serum (Biowest, Nuaillé, France), 1% non‐essential amino acids (NEAA) (Fujifilm Wako Pure Chemical Industries), and 1% penicillin–streptomycin (P/S) (Fujifilm Wako Pure Chemical Industries) and cultured in non‐coated culture plates at 37 °C and in an incubator with 5% CO2. The culture medium was replaced every 2–3 days. At 80–90% confluence, the cell colonies were digested into single cells using TrypLE Express (Thermo Fisher Scientific). The resulting cells were used for lentiviral transfection and agonist experiments.
Figure S1 presents the protocol used for this experiment. Lentiviral vectors were acquired from VectorBuilder (VectorBuilder Japan, Inc., Kanagawa, Japan). The mCherry expression vector (pLV‐Puro‐EF1A‐mCherry) was used as a control. pMD2.g plasmid (Addgene plasmid# 12259; RRID: Addgene 12259, Watertown, MA, USA) and psPAX2 plasmids (Addgene plasmid# 12260; RRID: Addgene 12260) were used as packaging plasmids. To produce lentiviruses, HEK293T cells were transduced with lentiviral vectors and packaging constructs containing 2 μg of lentivirus plasmids, 1 μg of pMD2.g, and 1 μg of psPAX2 plasmids using polyethyleneimine (PEI; Polysciences Inc., Warrington, PA, USA). […]

PYY: PYY (4400‐v; Peptide Institute, Inc.); PYY (3–36) in Ca2+ imaging
Intracellular cAMP levels (Gi function): decreased in a concentration‐dependent manner
